Values joined by “and” are separate entries in the source; they are usually repeats but may differ in a detail not shown here. Equal values may be shown once.
Key:
[1] = CNS action of CRL 40727: hypothermia and amphetamine stereotypies (species not given); settings: in vivo
homme = assay: Clinical use as sedative and antidepressant agents; assay type: in vivo; settings: for résultats en tant qu'agents antidépresseurs chez l'homme: tablets or capsules of 5 mg, 3 per day
chiens [2] = assay: Cardiovascular action, intraduodenal route in dogs; assay type: in vivo, chien
Experimental: Trois chiens reçoivent le CRL 40727 par voie intraduodénale aux doses successives de 1 mg/kg, 2,5 mg/kg, 5 mg/kg et 10 mg/kg. On mesure les mêmes paramètres que ci-dessus. On observe ce qui suit.

souris [3] = assay: Toxicity: maximal non-lethal dose DL-0, intraperitoneal; assay type: in vivo; settings: mouse, i.p.
Experimental: La dose maximale non mortelle, DL-0, est supérieure à 128 mg/kg et inférieure à 256 mg/kg, chez la souris, par voie I.P. 2°) - Action sur le SNC
(§1) Le CRL 40827, en solution dans de l'eau distillée, a été administré par voie intrapéritonéale sous un volume de 20 ml/kg chez la souris mâle et un volume de 5 ml/kg chez le rat mâle. 1°) - Toxicité
La dose maximale non mortelle, DL-0, est supérieure à 64 mg/kg et inférieure à 128 mg/kg chez la souris mâle.
Le CRL 40854, en solution dans de l'eau distillée, a été administré par voie intrapéritonéale sous un volume de 20 ml/kg chez la souris màle et de 5 ml/kg chez le rat màle.
La dose maximale non mortelle DL-0 est supérieure à 128 mg/kg et inférieure à 256 mg/kg chez la souris.

souris [4] = assay: Interaction with apomorphine, mouse; assay type: in vivo
Experimental: as §1
Des lots de 6 souris reçoivent le CRL 40827 30 min avant l'injection sous-cutanée d'apomorphine à la dose de 1 ou 16 mg/kg.
(§2) En procédant selon les modalités opératoires données ci-dessus pour le CRL 40827, on observe ce qui suit.

chiens [5] = assay: Cardiovascular action, intravenous perfusion in dogs; assay type: in vivo, chien; settings: for minimal effective dose: Canis lupus familiaris, iv
Experimental: Deux chiens reçoivent le CRL 40727 par voie intraveineuse, en perfusion de 6 min, aux doses successives de 0,1 mg/kg, 1 mg/kg, 2,5 mg/kg, 5 mg/kg, 10 mg/kg et 20 mg/kg. On messure leur pression artérielle, leur fréquence cardiaque, leur débit fémoral, leur température rectale.

souris [6] = assay: CNS action of CRL 40727: sedative-type effects in the mouse; assay type: in vivo
souris [7] = assay: Motility reduced by hypoxic aggression (acute hypobaric anoxia); assay type: in vivo; settings: mouse
Experimental: Une demi-heure après avoir reçu le CRL 40827, les souris (10 par dose, 20 témoins) sont soumises à une anoxie hypobare aiguë (dépression de 8 x 10^4 Pa en 90 s, détente de 45 s), puis elles sont placées en actimètre où leur motilité est enregistrée pendant 10 min.
as §2

rats = assay: Interaction with amphetamine (stereotypies); assay type: in vivo, rat; settings: 8 and 32 mg/kg
Experimental: L'amphétamine (2 mg/kg) est injectée par voie intrapéritonéale à des lots de 6 rats, 30 min après l'administration de CRL 40827. […] Interaction avec la réserpine
as §2

rat = assay: Interaction with apomorphine, rat; assay type: in vivo; settings: i.p. 30 min before apomorphine 0,5 mg/kg s.c.
Experimental: as §1
Le CRL 40 827 est administré à des lots de 6 rats 30 min avant l'injection sous-cutanée de 0,5 mg/kg d'apomorphine.
as §2

souris [8] = assay: Spontaneous motility (actimeter); assay type: in vivo; settings: mouse; high dose 64 mg/kg
Experimental: Une demi-heure après avoir reçu le CRL 40827, les souris (6 par dose, 12 témoins) sont placées en actimètre où leur motilité est enregistrée pendant 30 min.
as §2

souris [9] = assay: Four-plate test, traction and electroshock; assay type: in vivo; settings: mouse, 30 min after dosing
Experimental: Le test est pratiqué sur des lots de 10 souris, 30 min après l'administration de CRL 40827.
as §2

souris [10] = assay: Motility reduced by habituation to the enclosure; assay type: in vivo; settings: mouse
Experimental: Après 18 h de séjour dans les actimètres, les souris (6 par dose, 12 témoins) reçoivent le CRL 40827. Elles sont aussitôt replacées dans leurs enceintes respectives et, 30 min plus tard, on enregistre leur motilité pendant 30 min.
as §2

souris mâles = assay: Intergroup aggressiveness test (number of fights after removal of the partition); assay type: in vivo; settings: mouse; dose not given
From the text: Des essais comparatifs ont été entrepris pour mettre en évidence quels sont les effets chez l'animal qui permettent de distinguer les produits selon l'invention de leurs homologues fluorés connus. Parmi ces essais, on a résumé ceux concernant les propriétés antiagressives. Plus précisément, on a évalué la diminution de l'agressivité intergroupes selon la technique suivante : a.près avoir séjourné pendant 3 semaines de part et d'autre d'une cloison opaque séparant leur cage par le milieu, des groupes de trois souris mâles de 20 g chacune environ reçoivent, par voie intrapéritonéale, les produits à tester en solution dans de l'eau distillée, les animaux témoins ne recevant que de l'eau distillée par voie intrapéritonéale. Une demi-heure plus tard, les deux groupes d'une même cage sont réunis par retrait de la cloison opaque et on note le nombre de combats qui surviennent en 10 min. On a utilisé trois cages pour chaque produit à tester et six cages pour le lot témoin ne recevant pas les produits à tester.
Les résultats du tableau I ci-après donnent la diminution de l'agressivité intergroupes par rapport au lot témoin, tous les produits à tester étant administrés à la dose de 8 mg/kg par voie intrapéritonéale. […]

souris [11] = assay: Interaction with oxotremorine; assay type: in vivo; settings: mouse
Experimental: Le CRL 40827 est administré à des lots de 6 souris 30 min avant l'injection intrapéritonéale de 0,5 mg/kg d'oxotrémo- rine. On observe que, dès la dose de 0,5 mg/kg, le CRL 40827 antagonise l'action hypothermisante de l'oxotrémorine; cet effet est très net à 32 mg/kg.
as §2

souris [12] = assay: Interaction with reserpine (hypothermia, ptosis); assay type: in vivo; settings: mouse
Experimental: Quatre heures après l'injection intrapéritonéale de 2,5 mg/kg de réserpine, des lots de 6 souris reçoivent le CRL 40827.
as §2

souris [13] = assay: Asphyxic anoxia (gallamine triethiodide); assay type: in vivo; settings: mouse
Experimental: Des lots de 10 souris reçoivent le CRL 40827 30 min avant l'administration intrapéritonéale d: 34 mg/kg de triiodoéthy- late de gallamine. A la plus forte dose (34 mg/kg),le CRL 40827 empêche l'apparition des convulsions et de la mort chez 40% des animaux.
as §2

With CC(C)NCC(=O)c1ccc(F)cc1 [CRL 40727, chlorhydratede N-(4-fluorophénacyl)-isopropylamine] the “effets de type sédatif: température, effets hypothermisants de l'apomorphine, l'oxotrémorine et la réserpine” value [1] was “hypothermie et potentialisation des effets hypothermisants de l'apomorphine, l'oxotrémorine et la réserpine”, the “stéréotypies amphétaminiques” value [1] was “antagonisme modéré” and the “résultats cliniques dans le domaine psychotrope en tant qu'agents sédatifs et antidépresseurs” value (homme; clinic) was “bons résultats”. For the same compound, the “résultats en tant qu'agents antidépresseurs chez l'homme” value (homme) was “excellents résultats”, the minimal effective dose (chiens [2]; Canis lupus familiaris, dog, intraduodenal, read-out: dose from which une action hypotensive appears) was 10 mg/kg and the “action hypotensive et vasodilatatrice” value (chiens [2]; another dog, 5 mg/kg I.V. at the end of the intraduodenal test) was “Le même résultat”. For the same compound, the “hypotension à l'isoprénaline” value (chiens [2]; dog, intraduodenal) was “n'est pas modifiée”, the “fréquence cardiaque (tachycardie à l'isoprénaline)” value (chiens [2]; dog, mean, after 10 mg/kg intraduodenal, control 220) was 165 battements/min and the “action hypotensive et vasodilatatrice” value (chiens [2]; one dog, supplementary dose of 20 mg/kg I.D.) was “action hypotensive plus importante, sans effet vasodilatateur supplémentaire”. For the same compound, the “dose maximale non mortelle, DL-0” value (souris [3]) was > 128 mg/kg and < 256 mg/kg, the “comportement de verticalisation et stéréotypies (apomorphine)” value (souris [4]) was “ne modifie pas” and the “action hypothermisante de la forte dose d'apomorphine” value (souris [4]; 0,5, 2 and above all 8 and 32 mg/kg i.p., 30 min before apomorphine 16 mg/kg s.c.) was “s'oppose nettement”. It also gave a minimal effective dose (chiens [5]; dog, i.v., successive doses 0,1 to 20 mg/kg, read-out: dose from which the débit fémoral increases) of 1 mg/kg, a minimal effective dose (chiens [5]; dog, i.v., read-out: dose from which the pression artérielle diastolique decreases) of 10 mg/kg and a minimal effective dose (chiens [5]; dog, i.v., read-out: dose from which the pression artérielle différentielle increases) of 5 mg/kg. The minimal effective dose (chiens [5]; dog, i.v., read-out: dose from which the pression artérielle moyenne decreases) was 20 mg/kg, the fréquence cardiaque (chiens [5]; dog, i.v.) was “n'est pas nettement modifiée” and the “hypotension à l'isoprénaline” value (chiens [5]; dog, i.v.) was “n'est pas modifiée”. The “fréquence cardiaque (tachycardie à l'isoprénaline)” value (chiens [5]; dog, mean, after 10 mg/kg i.v., control 215) was 182 battements/min, the “pression artérielle” value (chiens [5]; one dog, supplementary dose of 40 mg/kg I.V.) was “hypotension plus importante qu'à la dose précédente” and the “effets de type sédatif: motilité et agressivité” value (souris [6]) was “hypomotilité et diminution de l'agressivité”. For the same compound, the “effets de type sédatif: sédation, réactivité” value (souris [6]) was “sédation et hyporéactivité”.

With CC(C)(C)NCC(O)c1ccccc1F (stereo not shown) [CRL 40827A, fumaratede 1-(2-fluorophényl)-2-tertiobutylamino-1-éthanol] the “résultats en tant qu'agents antidépresseurs chez l'homme” value (homme) was “excellents résultats”.

For CC(C)(C)NCC(O)c1ccc(F)cc1 (stereo not shown) [CRL 40854, chlorhydratede 1-(4-fluorophényl)-2-tertiobutylamino-1-éthanol], the “récupération motrice après anoxie hypobare” value (souris [7]) was “n'entraîne pas d'amélioration”, the “durée des stéréotypies amphétaminiques” value (rats) was “potentialise” and the “stéréotypies induites par l'apomorphine” value (rat) was “ne modifie pas”. For the same compound, the “motilité spontanée” value (souris [8]) was “diminue modérément”, the “effets convulsivants de l'électrochoc” value (souris [9]) was “ne modifie pas les effets convulsivants” and the “incapacité motrice (traction)” value (souris [9]) was “ne provoque pas de déficit moteur majeur”. The “nombre de passages punis (test des quatre plaques)” value (souris [9]) was “n'entraîne pas d'augmen- tion”, the “activité motrice (souris habituée à son enceinte)” value (souris [10]) was “ne provoque pas de reprise nette” and the “agressivité intergroupes / effet antiagressif” value (souris mâles) was “diminue l'agressivité intergroupes”. The “dose maximale non mortelle, DL-0” value (souris [3]) was > 128 mg/kg and < 256 mg/kg, the “comportement de verticalisation et stéréotypies (apomorphine)” value (souris [4]) was “sans modifier” and the “action hypothermisante de l'apomorphine” value (souris [4]; 16 and 64 mg/kg i.p.) was “s'oppose modérément”. For the same compound, the “signes de stimulation cholinergique périphérique (oxotrémorine)” value (souris [11]) was “ne modifie pas”, the “tremblements provoqués par l'oxotrémorine” value (souris [11]) was “ne modifie pas” and the “effet hypothermisant de l'oxotrémorine” value (souris [11]; doses printed 'le et 64 mg/kg') was “aggrave”. The “ptôsis réserpinique” value (souris [12]) was “gans modifier”, the “hypothermie réserpinique” value (souris [12]; 4, 16 and 64 mg/kg) was “antagonise modérément” and the “apparition des convulsions et mort (anoxie par curarisation)” value (souris [13]) was “ne modifie pas”.

For COc1cc(OC)c(C(=O)CCCN2CCCC2)c(OC)c1 [LL 1656, chlorhydratede (2,4,6-triméthoxyphényl)-(3-pyrrolidino-propyl)-cétone, reference compound], the vasodilatation (chiens [2]; 6 mg/kg i.v., injected after CRL 40727) was “n'entraîne pas de vasodilatation supplémentaire” and the “débit fémoral” value (chiens [5]; one dog, 6 mg/kg I.V. after the CRL 40727 doses) was “n'augmente pas plus qu'avec la dose de 10 mg/kg de CRL 40727”.

Source: patent EP0060954A1, “Derivatives of fluorophenacyl amines and their therapeutic use” (LABORATOIRE L. LAFON Société anonyme dite:, priority 1981, dated 1982)
